Assay results taken from US20230233541A1, “SUBSTITUTED BENZAMIDES AS MODULATORS OF TREX1” (Constellation Pharmaceuticals, Inc., priority 2020, published 2023).

Assays:
full length human TREX1 = target: T1, full length human TREX1 (Homo sapiens, UniProt Q9NSU2); test: TREX1 Biochemical Assay (fluorescence assay, degradation of dsDNA substrate); details: 150 pM TREX1, 60 nM dsDNA substrate, 25 minutes at room temperature; read-out: hTREX1 EC50
T1 construct: N-terminally His-Tev tagged full length human TREX1; His-Tev (His tag with TEV protease site) (N); made in house; host or cells: E. coli
T1 sequence (Q9NSU2 1-314): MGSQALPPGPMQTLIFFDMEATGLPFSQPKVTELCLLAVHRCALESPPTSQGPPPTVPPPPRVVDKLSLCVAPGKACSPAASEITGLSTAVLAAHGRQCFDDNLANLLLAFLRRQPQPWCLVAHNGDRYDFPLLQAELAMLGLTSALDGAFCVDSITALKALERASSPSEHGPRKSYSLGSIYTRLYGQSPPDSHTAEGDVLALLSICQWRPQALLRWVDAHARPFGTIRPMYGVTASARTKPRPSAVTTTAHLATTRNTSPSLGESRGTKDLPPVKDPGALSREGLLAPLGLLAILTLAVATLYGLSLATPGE
How it was run: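 E. coli-expressed His-Tev-tagged full-length TREX1 (150 pM) with 60 nM quenched-fluorophore dsDNA in Tris pH 7.4, 150 mM NaCl, 100 mM MgCl2, 1% DMSO, 25 min room temperature, 10-point dose-response. EDTA stop; fluorescence 615 nm (ex 570 nm); IC50 from four-parameter fit against pre-quenched and no-inhibitor controls.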

[1] = target: T2, human TREX2 (residues M44-A279) (Homo sapiens, UniProt Q9BQ50); test: TREX2 Biochemical Assay (fluorescence assay, degradation of dsDNA substrate); details: 2.5 nM TREX2, 60 nM dsDNA substrate, 25 minutes at room temperature; read-out: hTREX2 EC50
T2 construct: human TREX2 (residues M44-A279, expressed in E. coli); His-Tev (His tag with TEV protease site) (N); made in house; host or cells: E. coli
T2 sequence (Q9BQ50 44-279 isoform Q9BQ50-1): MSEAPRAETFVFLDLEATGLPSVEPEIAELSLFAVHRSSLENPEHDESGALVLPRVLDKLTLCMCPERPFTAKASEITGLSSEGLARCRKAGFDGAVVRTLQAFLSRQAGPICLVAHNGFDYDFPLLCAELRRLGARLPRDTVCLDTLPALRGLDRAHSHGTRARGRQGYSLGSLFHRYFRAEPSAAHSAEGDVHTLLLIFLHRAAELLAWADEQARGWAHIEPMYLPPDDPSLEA
How it was run: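 His-Tev-tagged human TREX2 (M44-A279, E. coli-expressed) at 2.5 nM final, with 60 nM TEX615/quencher-labelled dsDNA in pH 7.4 Tris buffer with MgCl2 and 1.0% DMSO, 10-point dose-response, 25 min at room temperature, then EDTA quench. Fluorescence read at 615 nm (ex 570 nm). IC50 from four-parameter fit against pre-quenched and no-inhibitor controls.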

Compound	EC50 (full length human TREX1) [µM]	EC50 [1] [µM]
CC[C@H](c1cccc(Cl)c1Cl)N(Cc1ccc(C(=O)O)nc1)C(=O)c1cc(F)cc(F)c1 [Compound 254]	< 0.1	1 to 10
Cn1ncc2ccc(CN(Cc3cccnc3)C(=O)c3cccc(F)c3)cc21 [Compound 128]	1 to 10	> 100
O=C(c1cc(F)cc(F)c1)N(Cc1cccnc1)[C@@H](CCO)c1ccc(Cl)cc1Cl [Compound 261]	0.1 to 1	10 to 100
O=C(c1cccc(F)c1)N(Cc1cccnc1)Cc1ccccc1F [Compound 129]	> 10	> 100
O=C(c1cccc(F)c1)N(Cc1ccncc1)Cc1ccc(Cl)cc1Cl [Compound 97]	> 10	> 100
O=C(O)c1ccc(CN(Cc2ccnc(Cl)c2Cl)C(=O)c2cc(F)cc(F)c2)cn1 [Compound 201]	< 0.1	1 to 10
O=C(c1ccc(O)c(C(F)(F)F)c1)N(Cc1cccnc1)Cc1cc(Cl)cc(Cl)c1 [Compound 72]	> 10	> 100
COc1nc(C(=O)O)ccc1CN(Cc1cccc(Cl)c1Cl)C(=O)c1cc(F)cc(F)c1 [Compound 210]	1 to 10	10 to 100

The next lines start with the values.

EC50 (full length human TREX1) [µM]	EC50 [1] [µM]	Compound
> 10	> 100	O=C(c1cccc(F)c1)N(Cc1ccc(C(F)(F)F)nc1)Cc1ccc(Cl)cc1Cl [Compound 105]
1 to 10	> 100	O=C(c1ccc(F)c(F)c1)N(Cc1cccnc1)Cc1ccc(Cl)cc1Cl [Compound 101]
< 0.1	1 to 10	CC[C@H](c1ccc(OC)c(OC)c1Cl)N(Cc1ccc(C(=O)O)nc1)C(=O)c1cc(F)cc(F)c1 [Compound 226]
> 10	> 100	COc1cc(C(=O)N(Cc2cccnc2)Cc2ccc(Cl)cc2Cl)cc(Br)c1O [Compound 41]
> 10	> 100	C[C@@H](c1cccnc1)N(Cc1ccc(Cl)cc1Cl)C(=O)c1cccc(F)c1 (single isomer, unassigned) [Compound 154]
> 10	> 100	O=C(c1cc(Cl)c(O)c(Cl)c1)N(Cc1cccnc1)Cc1ccc(Cl)cc1Cl [Compound 27]
0.1 to 1	10 to 100	O=C(O)c1ccc(CN(Cc2ccccc2Cl)C(=O)c2cccc(F)c2)cn1 [Compound 151]
